Test results from patent US20240174727A1, “LONG-ACTING NATRIURETIC PEPTIDES AND USES THEREOF” (Eli Lilly and Company, priority 2022, published 2024).
Where two headings read alike, the source gives them in different places. Numbered stars: 1 amine (or outer) side, 2 acyl side, 3 side chain; on linkers, the order of the positions; unused ones are H or OH. Bridge positions count the residues as written; N and C are the ends. Square brackets hold non-standard residues; d marks the D form. * marks the point of attachment. C20 diacid = O=C(O)CCCCCCCCCCCCCCCCCCC(=O)*; γGlu = O=C(O)[C@H](CCC(=O)[*:2])N[*:1]; 4Pal = N[C@@H](Cc1ccncc1)C(=O)O; Dap = NC[C@H](N)C(=O)O; AEEA = NCCOCCOCC(=O)O; CH2 = C([*:1])[*:2]; βAla = NCCC(=O)O

What was measured:
[1] = molecular target: T1, human NPRA (Homo sapiens, UniProt P16066); experiment: Human NPRA cGMP activity assay (HTRF) in HEK293 cells overexpressing NPRA; format: cell-based; conditions: assay buffer with 0.1% casein
T1 construct: Full-Length cDNA Cloning and Generation of Cell Lines Overexpressing Natriuretic Peptide Receptors (NPRs); expressed in transfected cells; host or cells: Jump-in T-Rex HEK293 cells, pJTI R4 CMV-TO MCS pA vector, tetracycline induction
T1 sequence (P16066 33-1061): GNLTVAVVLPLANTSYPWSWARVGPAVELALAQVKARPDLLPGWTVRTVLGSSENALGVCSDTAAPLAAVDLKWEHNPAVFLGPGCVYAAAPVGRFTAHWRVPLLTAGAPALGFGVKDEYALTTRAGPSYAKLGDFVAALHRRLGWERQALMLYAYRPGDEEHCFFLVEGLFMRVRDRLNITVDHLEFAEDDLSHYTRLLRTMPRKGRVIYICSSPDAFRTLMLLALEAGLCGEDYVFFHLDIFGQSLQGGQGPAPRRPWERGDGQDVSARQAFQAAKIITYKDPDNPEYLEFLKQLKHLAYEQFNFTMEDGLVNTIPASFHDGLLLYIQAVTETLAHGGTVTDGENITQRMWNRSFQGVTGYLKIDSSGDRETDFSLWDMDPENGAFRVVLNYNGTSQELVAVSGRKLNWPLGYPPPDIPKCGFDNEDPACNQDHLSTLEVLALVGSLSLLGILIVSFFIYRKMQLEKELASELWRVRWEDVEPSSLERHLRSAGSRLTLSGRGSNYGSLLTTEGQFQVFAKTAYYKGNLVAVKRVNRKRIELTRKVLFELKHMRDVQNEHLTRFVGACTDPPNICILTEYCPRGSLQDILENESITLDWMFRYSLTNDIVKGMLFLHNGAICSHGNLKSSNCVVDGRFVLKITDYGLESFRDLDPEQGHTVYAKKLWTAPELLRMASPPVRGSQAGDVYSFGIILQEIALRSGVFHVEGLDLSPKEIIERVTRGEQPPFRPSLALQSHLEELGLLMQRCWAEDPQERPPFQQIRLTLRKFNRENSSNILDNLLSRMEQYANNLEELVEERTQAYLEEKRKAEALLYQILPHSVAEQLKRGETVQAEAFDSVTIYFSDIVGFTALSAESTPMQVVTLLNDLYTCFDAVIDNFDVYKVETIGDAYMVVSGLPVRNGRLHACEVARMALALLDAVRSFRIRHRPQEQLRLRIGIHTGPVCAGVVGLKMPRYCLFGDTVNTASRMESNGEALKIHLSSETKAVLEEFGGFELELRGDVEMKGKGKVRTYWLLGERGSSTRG
Method in brief: (§1)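 cGMP measured by HTRF and scaled between buffer (minimum) and 100 nM amidated rat ANP (maximum). Polypeptides in 10-fold steps from 10 μM to 1 pM, 0.5% DMSO, 0.5 mM IBMX, 40 min at room temperature, on induced NPRA-overexpressing HEK293 cells.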

[2] = molecular target: T2, rat NPRA (Rattus norvegicus, UniProt P18910); experiment: Rat NPRA cGMP activity assay (HTRF) in HEK293 cells overexpressing NPRA; format: cell-based
T2 construct: Full-Length cDNA Cloning and Generation of Cell Lines Overexpressing Natriuretic Peptide Receptors (NPRs); expressed in transfected cells; host or cells: Jump-in T-Rex HEK293 cells, pJTI R4 CMV-TO MCS pA vector, tetracycline induction
T2 sequence (P18910 29-1057): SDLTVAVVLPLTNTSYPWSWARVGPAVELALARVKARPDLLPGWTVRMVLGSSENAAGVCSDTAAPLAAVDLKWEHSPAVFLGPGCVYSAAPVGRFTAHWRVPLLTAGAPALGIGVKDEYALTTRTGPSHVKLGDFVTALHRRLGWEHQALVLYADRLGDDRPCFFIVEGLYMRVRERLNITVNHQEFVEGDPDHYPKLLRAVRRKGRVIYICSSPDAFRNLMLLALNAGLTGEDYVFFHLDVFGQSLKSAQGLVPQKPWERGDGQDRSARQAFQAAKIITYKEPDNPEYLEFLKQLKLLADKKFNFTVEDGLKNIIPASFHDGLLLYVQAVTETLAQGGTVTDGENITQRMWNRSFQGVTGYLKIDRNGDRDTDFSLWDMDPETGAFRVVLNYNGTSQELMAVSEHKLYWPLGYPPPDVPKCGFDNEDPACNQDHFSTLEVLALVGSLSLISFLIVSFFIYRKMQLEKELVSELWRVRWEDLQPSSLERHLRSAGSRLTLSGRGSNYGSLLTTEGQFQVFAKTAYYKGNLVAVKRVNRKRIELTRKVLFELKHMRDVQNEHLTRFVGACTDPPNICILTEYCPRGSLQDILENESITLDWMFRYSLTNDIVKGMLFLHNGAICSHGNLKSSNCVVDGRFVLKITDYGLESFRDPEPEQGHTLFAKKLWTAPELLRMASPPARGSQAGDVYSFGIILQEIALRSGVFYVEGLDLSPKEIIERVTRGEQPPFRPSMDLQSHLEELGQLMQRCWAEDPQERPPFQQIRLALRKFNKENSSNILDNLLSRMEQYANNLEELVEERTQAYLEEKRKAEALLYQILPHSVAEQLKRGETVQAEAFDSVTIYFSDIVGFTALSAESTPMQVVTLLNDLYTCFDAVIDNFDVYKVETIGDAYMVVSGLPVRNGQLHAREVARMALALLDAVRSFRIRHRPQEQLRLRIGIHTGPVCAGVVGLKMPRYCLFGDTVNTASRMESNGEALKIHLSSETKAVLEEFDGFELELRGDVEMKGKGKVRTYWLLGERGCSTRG
Method in brief: as §1

[3] = read-out: cGMP Assay (EC50, pM) w/Casein hNPRA
[4] = assay buffer with 0.1% casein, read-out: cGMP Assay (EC50, pM) w/Casein rNPRA
[5] = cGMP Assay (EC50, pM) w/Casein hNPRA
[6] = assay buffer with 0.1% BSA, read-out: cGMP Assay (EC50, pM) w/BSA rNPRA

## {C20 diacid-γGlu}-EKEKEKGEKPRSSCFGG[Dap]IDRIGHQSGLGCPSFRHGSPSSGAPPPS-NH2 (linker 14-30 via CH2) [Example 139]
[1]; [3]
  EC50: 19700 pM
[2]; [4]
  EC50: 200000 pM

## CC[C@H](C)[C@@H]1NC(=O)[C@H](CCCNC(=N)N)NC(=O)[C@H](CC(=O)O)NC(=O)[C@H]([C@@H](C)CC)NC(=O)[C@H](CCCNC(=N)N)NC(=O)[C@H](CCCCN)NC(=O)CNC(=O)[C@H](Cc2ccccc2)NC(=O)[C@@H](NC(=O)[C@H](CO)NC(=O)[C@H](CO)NC(=O)[C@H](CCCNC(=N)N)NC(=O)[C@H](CCCNC(=N)N)NC(=O)[C@H](Cc2ccncc2)NC(=O)[C@H](CO)NC(=O)COCCOCCNC(=O)COCCOCCNC(=O)COCCOCCNC(=O)COCCOCCNC(=O)COCCOCCNC(=O)COCCOCCNC(=O)CNC(=O)[C@H](CCCCN)NC(=O)[C@H](CCC(=O)O)NC(=O)[C@H](CCCCN)NC(=O)[C@H](CCC(=O)O)NC(=O)[C@H](CCCCN)NC(=O)[C@H](CCC(=O)O)NC(=O)CC[C@H](NC(=O)CCCCCCCCCCCCCCCCCCC(=O)O)C(=O)O)CSCSC[C@@H](C(=O)N2CCC[C@H]2C(=O)N[C@@H](CO)C(=O)N[C@@H](Cc2ccccc2)C(=O)N[C@@H](CCCNC(=N)N)C(=O)N[C@@H](Cc2c[nH]cn2)C(=O)NCC(=O)N[C@@H](CO)C(=O)N2CCC[C@H]2C(=O)N[C@@H](CO)C(=O)N[C@@H](CO)C(=O)NCC(=O)N[C@@H](C)C(=O)N2CCC[C@H]2C(=O)N2CCC[C@H]2C(=O)N2CCC[C@H]2C(=O)N[C@@H](CO)C(N)=O)NC(=O)CNC(=O)[C@H](CC(C)C)NC(=O)CNC(=O)[C@H](CO)NC(=O)[C@H](Cc2ccc(O)cc2)NC(=O)[C@H](Cc2c[nH]cn2)NC(=O)CNC1=O [Example 113]
[1]; [5]
  EC50: 621 pM
[2]; cGMP Assay (EC50, pM) w/BSA rNPRA, assay buffer with 0.1% BSA
  EC50: 149000 pM

## CC[C@H](C)[C@@H]1NC(=O)[C@H](CCCNC(=N)N)NC(=O)[C@H](CC(=O)O)NC(=O)[C@H]([C@@H](C)CC)NC(=O)[C@H](CCCNC(=N)N)NC(=O)[C@H](CCCCN)NC(=O)CNC(=O)[C@H](Cc2ccccc2)NC(=O)[C@@H](NC(=O)[C@H](CO)NC(=O)[C@H](CO)NC(=O)[C@H](CCCNC(=N)N)NC(=O)[C@H](CCCNC(=N)N)NC(=O)[C@H](Cc2ccncc2)NC(=O)[C@H](CO)NC(=O)COCCOCCNC(=O)COCCOCCNC(=O)COCCOCCNC(=O)COCCOCCNC(=O)COCCOCCNC(=O)COCCOCCNC(=O)COCCOCCNC(=O)COCCOCCNC(=O)CNC(=O)[C@H](CCCCN)NC(=O)[C@H](CCC(=O)O)NC(=O)[C@H](CCCCN)NC(=O)[C@H](CCC(=O)O)NC(=O)[C@H](CCCCN)NC(=O)[C@H](CCC(=O)O)NC(=O)CC[C@H](NC(=O)CCCCCCCCCCCCCCCCCCC(=O)O)C(=O)O)CSCSC[C@@H](C(=O)N2CCC[C@H]2C(=O)N[C@@H](CO)C(=O)N[C@@H](Cc2ccccc2)C(=O)N[C@@H](CCCNC(=N)N)C(=O)N[C@@H](Cc2c[nH]cn2)C(=O)NCC(=O)NCC(=O)N[C@@H](CCCCN)C(=O)N[C@@H](CO)C(=O)N[C@@H](CO)C(=O)NCC(=O)N[C@@H](C)C(=O)N2CCC[C@H]2C(=O)N2CCC[C@H]2C(=O)N2CCC[C@H]2C(=O)N[C@@H](CO)C(N)=O)NC(=O)CNC(=O)[C@H](CC(C)C)NC(=O)CNC(=O)[C@H](CO)NC(=O)[C@H](CCC(N)=O)NC(=O)[C@H](Cc2c[nH]cn2)NC(=O)CNC1=O [Example 87]
[1]; [3]
  EC50: 621 pM
[2]; [6]
  EC50: 463000 pM

## {C20 diacid-γGlu}-EKEKEKG[AEEA][AEEA][AEEA][AEEA][AEEA][AEEA]EK[βAla]RSSCFGKRIDRIGHQSGLGCPSFRHGSPSSGAPPPS-NH2 (linker 20-36 via CH2) [Example 119]
[1]; [3]
  EC50: 493 pM
[2]; [4]
  EC50: 17900 pM

## CC[C@H](C)[C@@H]1NC(=O)[C@H](CCCNC(=N)N)NC(=O)[C@H](CC(=O)O)NC(=O)[C@H]([C@@H](C)CC)NC(=O)[C@H](CCCNC(=N)N)NC(=O)CNC(=O)CNC(=O)[C@H](Cc2ccccc2)NC(=O)[C@@H](NC(=O)[C@H](CO)NC(=O)[C@H](CO)NC(=O)[C@H](CCCNC(=N)N)NC(=O)[C@H](CCCNC(=N)N)NC(=O)[C@H](Cc2ccncc2)NC(=O)[C@H](CO)NC(=O)COCCOCCNC(=O)COCCOCCNC(=O)COCCOCCNC(=O)COCCOCCNC(=O)COCCOCCNC(=O)COCCOCCNC(=O)CNC(=O)[C@H](CCCCN)NC(=O)[C@H](CCC(=O)O)NC(=O)[C@H](CCCCN)NC(=O)[C@H](CCC(=O)O)NC(=O)[C@H](CCCCN)NC(=O)[C@H](CCC(=O)O)NC(=O)CC[C@H](NC(=O)CCCCCCCCCCCCCCCCCCC(=O)O)C(=O)O)CSCSC[C@@H](C(=O)N2CCC[C@H]2C(=O)N[C@@H](CO)C(=O)N[C@@H](Cc2ccccc2)C(=O)N[C@@H](CCCNC(=N)N)C(=O)N[C@@H](Cc2c[nH]cn2)C(=O)NCC(=O)N[C@@H](CO)C(=O)N2CCC[C@H]2C(=O)N[C@@H](CO)C(=O)N[C@@H](CO)C(=O)NCC(=O)N[C@@H](C)C(=O)N2CCC[C@H]2C(=O)N2CCC[C@H]2C(=O)N2CCC[C@H]2C(=O)N[C@@H](CO)C(N)=O)NC(=O)CNC(=O)[C@H](CC(C)C)NC(=O)CNC(=O)[C@H](CO)NC(=O)[C@H](Cc2ccc(O)cc2)NC(=O)[C@H](Cc2c[nH]cn2)NC(=O)CNC1=O [Example 96]
[1]; [5]
  EC50: 720 pM
[2]; cGMP Assay (EC50, pM) w/Casein rNPRA, assay buffer with 0.1% casein
  EC50: 12200 pM

## {C20 diacid-γGlu}-EKEKEKGS[4Pal]RRSSCFGGRIDRIGHQSGLGCPSFRHGGKSSGAPPPS-NH2 (linker 14-30 via CH2) [Example 67]
[1]; [3]
  EC50: 1220 pM
[2]; [4]
  EC50: 18800 pM

## CC[C@H](C)[C@@H]1NC(=O)[C@H](CCCNC(=N)N)NC(=O)[C@H](CC(=O)O)NC(=O)[C@H]([C@@H](C)CC)NC(=O)[C@H](CCCNC(=N)N)NC(=O)CNC(=O)CNC(=O)[C@H](Cc2ccccc2)NC(=O)[C@@H](NC(=O)[C@H](CO)NC(=O)[C@H](CO)NC(=O)[C@H](CCCNC(=N)N)NC(=O)[C@H](CCCNC(=N)N)NC(=O)[C@H](Cc2ccncc2)NC(=O)[C@H](CO)NC(=O)CNC(=O)[C@H](CCCCN)NC(=O)[C@H](CCC(=O)O)NC(=O)[C@H](CCCCN)NC(=O)[C@H](CCC(=O)O)NC(=O)[C@H](CCCCN)NC(=O)[C@H](CCC(=O)O)NC(=O)CC[C@H](NC(=O)CCCCCCCCCCCCCCCCCCC(=O)O)C(=O)O)CSSC[C@@H](C(=O)N[C@@H](CC(N)=O)C(=O)N[C@@H](CO)C(=O)N[C@@H](Cc2ccccc2)C(=O)N[C@@H](CCCNC(=N)N)C(=O)N[C@@H](Cc2ccc(O)cc2)C(N)=O)NC(=O)CNC(=O)[C@H](CC(C)C)NC(=O)CNC(=O)[C@H](CO)NC(=O)[C@H](CCC(N)=O)NC(=O)[C@H](C)NC(=O)CNC1=O [Example 11]
[1]; [3]
  EC50: 1020 pM
[2]; [6]
  EC50: 24700 pM
